Values quoted from earlier work as cited in patent US20210052545A1, “COMPOSITIONS AND METHODS OF THEIR USE” (priority 2018, published 2021).

Settings: human, in vivo

NC(=O)N1c2ccccc2C=Cc2ccccc21 [carbamezepine]
increase in the risk of blood dyscrasias: five- to eight | patients showing a 25% decrease in white blood cell count: 7%
